Here are results for nine molecules from article PMC9505670, “The Effect of Short-Chain Fatty Acids on Growth of Cryptosporidium parvum In Vitro” (Microorganisms, 2022).

SMILES strings stand for the structures. Several values for one entry are separate records, joined by “and”; a condition that tells them apart may be missing. Identical values can stand only once. Like-named read-outs stand apart in the source and are kept apart here.

Data set [1] concerns T. gondii. On the set-up: method as in PMID 17626366. The following applies: cited from earlier work; for IC50: cell monolayers infected and then treated.
A further data set relates to C. parvum sporozoites. The data set can be described thus: SCFA treatment of live sporozoites before inoculation onto HCT-8 cells. The class given is cell-based, Cryptosporidium parvum. As to conditions: for inhibition of sporozoites: 45 min incubation with sporozoites prior to infection of host cell monolayers; for EC50: sporozoites incubated 45 min with SCFA, washed, then 48 h development on HCT-8 cells, read-out: EC50 for Sporozoite Stages. As to the method:
Sporozoites were prepared according to You et al., 1998 [15]. Briefly, after excystation, the C. parvum oocysts and sporozoite mixture was filtered through a […] filter using a syringe and centrifuged, washed and counted. Isolated sporozoites were incubated with different SCFAs for 45 min, then washed several times to remove SCFAs before plating on cell monolayers. Sporozoites were then inoculated onto HCT-8 cells and incubated for 3 h. Monolayers were then washed, media was replaced and parasites were allowed to develop for 48 h, as described in the culture assay above. Cells were fixed and labeled and parasitic stages were quantitated as described above.

Another data set deals with HCT-8 cells. The data set can be described thus: Compound toxicity for host cell cultures (CellTiter 96 tetrazolium assay). In kind it is cell-based, human. As to the method:
(§1) Test compound toxicity for HCT-8 cell cultures was assessed using the CellTiter 96 Non-Radioactive Cell Proliferation/Cytotoxicity assay as recommended by the manufacturer (Promega Corporation, Madison, WI, USA).

The test system of data set [2] is C. parvum. The experiment in a line: C. parvum in vitro culture assay, intracellular stages in infected HCT-8 cells. The class given is cell-based, Cryptosporidium parvum IOWA isolate. The method, then:
Growth of C. parvum in cell culture was performed as described previously. Briefly, purified C. parvum IOWA isolate oocysts were washed with phosphate-buffered saline (PBS, pH 7.4) to remove the storage buffer (2.5% w/v aqueous potassium dichromate) and resuspended in RPMI 1640 media supplemented with 0.75% sodium taurocholate and incubated for 30 min at 37 °C. The excystation mixture containing oocysts, oocyst shells and free sporozoites was diluted with RPMI 1640 with 10% fetal bovine serum (FBS). Approximately 1 × 10^5 oocysts and sporozoites were dispensed per well in 24-well plates containing confluent HCT-8 cells. Host cells inoculated with the parasite mixture were incubated for 3 h and subsequently washed with PBS to remove free parasites (those that had not invaded host cells). PBS was replaced with fresh RPMI 1640 with 10% FBS with or without test compounds and the cultures were incubated for 48 h. In addition, RPMI 1640 with 10% FBS supplemented with DMSO (same concentration used with test compounds) was evaluated to determine the effect of inhibition or toxicity on cultures. Culture wells were washed with PBS, and then PBS was replaced by Bouin’s solution. After fixation of cultures, the Bouin solution was removed and decolorized with 70% ethanol, followed by 5 washes with PBS. Culture wells were labeled with an anti-C. parvum fluorescein-labeled monoclonal antibody (C3C3-FITC) and parasites were enumerated via quantitative fluorescent microscopy at 400× magnification using an Olympus IX73 microscope (Waltham, MA, USA). Twenty-four sequential, non-overlapping fields per well were captured as digital images, constituting a representative subsample of the entire well. The parasites were quantified using OpenCFU (https://sourceforge.net/projects/opencfu/, accessed on 4 October 2014) software based on the size of the fluorescing parasites and the parasite-specific fluorescent signal. Data were obtained from four well replicates, and each experiment was repeated at least twice. Dose–effect curves and the median effective concentration (EC50) of each compound alone or in combination was determined using CompuSyn (ComboSyn, Inc., Paramus, NJ, USA, ver. 2.1 for Microsoft Windows) computer software. The EC50 was defined as the concentration required for reducing the number of parasites by 50% compared with the untreated control. […]

For a further data set, the system named is E. invadens. The arrangement: method as in PMID 15659070. The following applies: incubated individually; cited from earlier work.
The nature of data set [3]: Compound toxicity for host cell cultures (CellTiter 96 tetrazolium assay). As to conditions: human; HDAC inhibitors; 48 h; read-out: Cytotoxicity Concentration (CC50) for HCT-8 Host Cells. In kind it is cell-based, human. The method, then: as §1
A further data set relates to Cryptosporidium. The arrangement: method as in PMID 8917558. The following applies: previously reported; cited from earlier work.
The subject of a further data set is CpHDAC3. The following applies: recombinant protein; cited from earlier work.
A further data set relates to autophagy in HCT-8 cells. The data set can be described thus: Autophagy assay (autophagosome detection reagent). As to conditions: 24 h. In kind it is cell-based, human. As to the method:
In vitro assays were performed as described above. Briefly, HCT-8 cells were infected with C. parvum and/or treated with 1 mM butyrate for 24 h, after which the cells were analyzed for […]. Control wells (uninfected, untreated) were compared with treated wells and infected wells. An autophagy assay was used following the recommendation of the manufacturer (Sigma-Aldrich, St. Louis, MO, USA). The medium was removed from the wells and 100 µL of the proprietary autophagosome detection reagent was added directly to each well. The plate was then incubated for 45 min at 37 °C and 5% CO2. The detection reagent was then removed, and each well was washed 3 times with the provided wash buffer before measuring fluorescence (λex = 360/λem = 520 nm) with a microplate reader. The intensity of the fluorescence correlates directly with the amount of autophagy observed.

A further data set deals with apoptosis in HCT-8 cells. The experiment in a line: Apoptosis assay (Caspase-Glo 3/7). The class given is cell-based, human. The following applies: 24 h. The method, then: In vitro assays were performed as described above. Briefly, HCT-8 cells were infected with C. parvum and/or treated with 1 mM butyrate for 24 h, after which the cells were analyzed for percent apoptosis. Control wells (uninfected, untreated) were compared with treated wells and infected wells. Apoptosis in HCT-8 cell cultures was measured using a commercially available assay (Promega Corporation, Madison, WI, USA). Caspase-Glo3/7 reagent was added directly to the assay wells.

The subject of data set [4] is cytokine production in HCT-8 cells. The experiment in a line: Cytokine production, Luminex 48-plex, HCT-8 supernatants. The class given is cell-based, human. As to conditions: for majority of cytokines in the 48-plex assay (including IL-6 and TNF-α): 48 h treatment, alone or in combination with C. parvum infection. As to the method:
For the cytokine assay, the in vitro infection assay was performed as described above. Supernatants from 24-well plates were collected and stored at –80 °C. Luminex multiplex assays were completed by Eve Technologies using the Human Cytokine discovery Array 48-plex Panel (Calgary, AB, Canada).

For data set [5], the system named is T. gondii. The arrangement: method as in PMID 34339265. The following applies: treatment of mice; cited from earlier work.
In data set [6] the test system is C. parvum. On the set-up: method as in PMID 24273180. The following applies: cited from earlier work.
Data set [7] has as its system C. parvum. The arrangement: method as in PMID 24273180. As to conditions: cited from earlier work. The source holds these as a separate data set.
The mark [8] stands for this setting: HCT-8 cells infected with C. parvum, 48 h treatment, read-out: EC50 for Intracellular Stages.
Setting [9] is: Cryptosporidium parvum, HCT-8, 48 h, HCT-8 cells infected with C. parvum, 48 h treatment, read-out: EC50 for Intracellular Stages.
Where [10] appears, read: C. parvum infected then 1 mM butyrate, 48 h, compared with butyrate alone or infection alone.
Setting [11] is: HDAC inhibitors, infected HCT-8 cells, 48 h, read-out: EC50 of Intracellular Stages.

`O=C(O)CCCc1ccccc1` [4-phenylbuyrate]: the “inhibition of T. gondii in vitro” value in the data set with T. gondii [1] is “inhibit”.
On to `CC(=O)O` [Acetate], for which the inhibition of sporozoites entry with C. parvum sporozoites is on record as “no inhibition”. Besides, the EC50 with C. parvum sporozoites was over 100000 µM; with C. parvum [2] (setting [8]) it was 4000 µM. Further, the CC50 in the data set on HCT-8 cells was over 200000 µM. In the data set with E. invadens, the “concentration range inhibiting encystment” value is 6 to 22 mM.
As to `CCC(=O)CCCCC[C@@H]1NC(=O)[C@H]2CCCCN2C(=O)[C@H]([C@@H](C)CC)NC(=O)[C@H](Cc2cn(OC)c3ccccc23)NC1=O` [Apicidin], the CC50 at 48 h in data set [3] is 150 µM. The EC50 with C. parvum [2] (Cryptosporidium parvum, HCT-8, 48 h, read-out: EC50 of Intracellular Stages, HDAC inhibitors, infected HCT-8 cells, 48 h) was 0.02 µM; in the data set with C. parvum [2] (read-out: EC50 of Intracellular Stages, HDAC inhibitors, infected HCT-8 cells, 48 h) it was 0.04 µM. Moreover, the “anti-cryptosporidial activity at concentration” value with Cryptosporidium is 30 ng/mL.
Regarding `CCCC(=O)O` [Butyrate], the IC50 in the data set on T. gondii [1] is 1000 to 5000 µM. Besides, the “inhibition of T. gondii in vitro” value in the data set with T. gondii [1] is recorded as “inhibit”. Further, the inhibition of sporozoites result in the data set with C. parvum sporozoites is “inhibited growth”. The EC50 in the data set with C. parvum sporozoites (Cryptosporidium parvum) was 2000 µM; in the data set on C. parvum [2] (setting [9]), 4000 to 10000 µM; with C. parvum [2] (setting [8]), 3000 to 8000 µM. For the same molecule, in the data set on CpHDAC3, the “inhibition of CpHDAC3” value is “did not inhibit”. In addition, the autophagy entry was “no difference” in the data set with autophagy in HCT-8 cells (1 mM alone, uninfected cells); “significant decrease in autophagy” in the data set with autophagy in HCT-8 cells (cells infected with C. parvum and treated, 1 mM). In addition, the apoptosis entry in the data set with apoptosis in HCT-8 cells (1.0 mM alone, compared to control, p < 0.05) is “significantly higher percentage of apoptosis”; in the data set on apoptosis in HCT-8 cells (C. parvum infection plus treatment 3 h after infection, 1 mM) it was “additional increase in apoptosis”. In addition, the “majority of cytokines in the 48-plex assay (including IL-6 and TNF-α)” value in data set [4] was “not significantly altered”. Moreover, the IL-1α entry in [4] (setting [10]) is listed as “significant increase”. The IL-8 result in data set [4] (setting [10]) is on record as “significant increase”. Further, the “concentration range inhibiting encystment” value with E. invadens was 6 to 22 mM.
In the case of `COc1ccc(Cn2ccc3ccc(C(=O)NO)cc32)cc1` [PCI 34051], the toxicity result in the data set with HCT-8 cells (below 200 nM) was “no toxicity”. Further, the EC50 with C. parvum [2] (setting [11]) is 0.001 µM and 0.001 to 0.007 µM. Moreover, the results for the “majority of cytokines in the 48-plex assay (including IL-6 and TNF-α)” value in data set [4] and in [4] (listed as PCI 34,051) were “did not increase cytokine expression” and “not significantly altered”, respectively.
Turning to `CCC(=O)O` [Propionate], in the data set on C. parvum sporozoites, the inhibition of sporozoites entry is listed as “no inhibition” and the EC50 is over 100000 µM. Besides, in the data set on C. parvum [2] (setting [8]), the EC50 was in the range of 3000 to 4000 µM. For the same molecule, the “concentration range inhibiting encystment” value in the data set with E. invadens was 6 to 22 mM.
Consider `CC(/C=C/C(=O)NO)=C\[C@@H](C)C(=O)c1ccc(N(C)C)cc1` [Trichostatin A], for which the CC50 with HCT-8 cells (HDAC inhibitors, 48 h, read-out: Cytotoxicity Concentration (CC50) for HCT-8 Host Cells) is over 200 µM. Moreover, the EC50 in the data set with C. parvum [2] (setting [11]) amounted to 0.02 µM. In the data set with Cryptosporidium, the “anti-cryptosporidial activity at concentration” value was 30 ng/mL.
For `CCCC(CCC)C(=O)O` [Valproate, reference compound], in the data set on T. gondii [1], the IC50 is 1000 to 5000 µM and the “inhibition of T. gondii in vitro” value is on record as “inhibit”. In addition, the inhibition of sporozoites result in the data set on C. parvum sporozoites was “no inhibition”. Further, the EC50 in the data set with C. parvum sporozoites (Cryptosporidium parvum) was over 100000 µM. The EC50 in the data set on C. parvum [2] (setting [9]) is 10000 µM. Moreover, the “number of T. gondii cysts in the brains of mice” value in the data set with T. gondii [5] was “reduce the number of T. gondii cysts”.
Regarding `O=C(CCCCCCC(=O)Nc1ccccc1)NO` [vorinostat], the in vitro activity result with C. parvum [6] is “in vitro activity”. For the same molecule, in the data set with C. parvum [7], the “efficacy in a mouse model” value is reported as “efficacy”.
